Data on four compounds can be found in patent US20070071762A1, “COMPREHENSIVE DIAGNOSTIC TESTING PROCEDURES FOR PERSONALIZED ANTICANCER CHEMOTHERAPY (PAC)” (CCC Diagnostics, LLC, priority 2005, published 2007).

Test [1] concerns SKBR-3 cells. Description: WST-8 growth inhibition of cultured breast cancer cells. In kind it is cell-based. The note with it: Homo sapiens, SK-BR-3, 72 hours post treatment.
Test [2] deals with SKBR-3 cells. The test is described as above. In kind it is cell-based, human. The note with it: for IC50: Homo sapiens, SK-BR-3, 5-FU, doses ranged from 5-300 μg/ml. The procedure: (§1) In another example, the expression of thymidylate synthase (TS) was correlated with the response of breast cancer cells to the chemotherapeutic drug 5-fluorouracil (5-FU). TS is a key enzyme in DNA biosynthesis and has been postulated to play a major role in predicting the response to 5-FU based chemotherapy. Experiments were conducted to examine this relationship. […] Doses ranged from 5-300 μg/ml.

The subject of test [3] is HCC 2218 cells. The test is described as above. In kind it is cell-based, human. The settings on record: for IC50: Homo sapiens. The procedure: as §1
Test [4] concerns T47D cells. The description is as above. It is filed as cell-based, human. The settings on record: for IC50: Homo sapiens. The procedure:
as §1

The subject of test [5] is HCC 38 cells. Described as above. The settings on record: for IC50: Homo sapiens. In kind it is cell-based, human. The procedure:
as §1

Test [6] has as its system HCC 202 cells. The test is described as above. The settings on record: for IC50: Homo sapiens. In kind it is cell-based, human. The procedure: as §1
The subject of test [7] is MCF-7 cells. Described as above. The settings on record: for IC50: Homo sapiens, MCF7, 5-FU, doses ranged from 5-300 μg/ml. In kind it is cell-based, human. The procedure:
as §1

Test [8] has as its system MCF-7 cells. The description is as above. The settings on record: Homo sapiens, 72 hours post treatment. In kind it is cell-based.
Test [9] deals with MDA-MB231 cells. The note with it: MDA-MB 231 cells.
Procedure: For experimental conditions, cell suspensions containing 10^4 viable cells were plated into 96 well plates in 100 μl of media, and allowed to attach for 24 hours at 37° C. in a 5% CO2 atmosphere. After this incubation period, the cells were exposed to the drug at the designated doses, which were based on peak plasma concentration (PPC), as determined by published pharmacokinetic analyses. […] Media containing 0.5% FCS was then added to each well in order to maximize ER expression. Control wells contained 100 μl of the appropriate media and were treated identically to the test wells. At 72 hours post treatment, the plates were subjected to WST-8 analysis. WST-8 is a tetrazolium salt that is bioreduced by cellular dehydrogenases to yield a colored formazan product. The amount of the formazan product is directly proportional to the number of living cells. […] The absorbance of each well was measured at 460 nm using a Biotek microplate reader. For each concentration of drugs the mean absorbance±the SE was calculated. Results are expressed as % inhibition of growth compared with drug concentration. IC50 values will be determined using the median effect plot of (log fa/log fu) vs log C where fu=fraction unaffected, fa=fraction affected and C=drug concentration.

Converted amounts (≈) assume the structure as drawn. Like-named read-outs stand apart in the source and are kept apart here. Some results are limits rather than exact numbers.

In general, IC50 refers to the concentration that inhibits the measured activity by half. Take `CC(=O)O[C@H]1C(=O)[C@@]2(C)[C@H]([C@H](OC(=O)c3ccccc3)[C@]3(O)C[C@H](OC(=O)[C@H](O)[C@@H](NC(=O)c4ccccc4)c4ccccc4)C(C)=C1C3(C)C)[C@]1(OC(C)=O)CO[C@@H]1C[C@@H]2O` [Paclitaxel, paclitaxel]: the half-maximal inhibitory concentration (IC50) is 10 µg/mL (≈ 11.7 µM) in test [1] (Paclitaxel, SKBR-3 cells, read-out: IC50-1); 8.5 µg/mL (≈ 9.95 µM) in test [1] (Paclitaxel, SKBR-3 cells, read-out: IC50-2); greater than 50 µg/mL in test [3] (Paclitaxel, HCC2218 cells, 72 hours post treatment, read-out: IC50-1); greater than 50 µg/mL in test [3] (Paclitaxel, HCC2218 cells, 72 hours post treatment, read-out: IC50-2); 3 µg/mL (≈ 3.51 µM) in [4] (Paclitaxel, 72 hours post treatment, read-out: IC50-1); 3.6 µg/mL (≈ 4.22 µM) in test [4] (Paclitaxel, 72 hours post treatment, read-out: IC50-2). Moreover, the concentration for half-maximal inhibition (IC50) in test [5] (HCC38, Paclitaxel, HCC 38 cells, 72 hours post treatment, read-out: IC50-1) was greater than 50 µg/mL; in [5] (HCC38, Paclitaxel, HCC 38 cells, 72 hours post treatment, read-out: IC50-2), greater than 50 µg/mL; in test [6] (HCC202, Paclitaxel, HCC 202 cells, 72 hours post treatment, read-out: IC50-1), greater than 50 µg/mL; in test [6] (HCC202, Paclitaxel, HCC 202 cells, 72 hours post treatment, read-out: IC50-2), greater than 50 µg/mL; in test [8] (MCF7, Paclitaxel, read-out: IC50-1) it was 6 µg/mL (≈ 7.03 µM); in [8] (MCF7, Paclitaxel, read-out: IC50-2), 7.1 µg/mL (≈ 8.31 µM). In addition, the “biological response to drug treatment (in words)” value (“biological response” for short) in test [2] is given as “sensitive”; in test [3] (HCC 2218 cells), “displayed a response to PTX, but did not express an IC50 value”; in test [4], “sensitive”; in [5] (HCC 38 cells), “displayed a response to PTX, but did not express an IC50 value”; in test [6] (HCC 202 cells), “resistant”; in [7], “sensitive”.

With `CC/C(=C(\c1ccccc1)c1ccc(OCCN(C)C)cc1)c1ccccc1` [Tamoxifen, tamoxifen], the figures for the “biological response” value in [2], in test [7] and in [9] were “much less sensitive response”, “high sensitivity” and “much less sensitive response”, respectively.

Take `O=c1[nH]cc(F)c(=O)[nH]1` [5 Fluorouracil, 5-fluorouracil]: the “biological response” value in [2] is given as “responding to lower doses”; in [3] (HCC 2218 cells), “responded only to higher doses”; in test [4] it was “responding to lower doses”; in test [5] (HCC 38 cells), “responded only to higher doses”; in [6] (HCC 202 cells) it was “responded only to higher doses”; in [7] it was “responding to lower doses”. In addition, the half-maximal inhibitory concentration (IC50) in test [2] (read-out: IC50-1 FU) worked out at 23.3 µg/mL (≈ 179 µM); in test [2] (read-out: IC50-2 FU) it was 33.7 µg/mL (≈ 259 µM); in test [3] (HCC2218, 5-FU, HCC 2218 cells, doses ranged from 5-300 μg/ml, read-out: IC50-1 FU), 246 µg/mL (≈ 1890 µM); in test [4] (5-FU, doses ranged from 5-300 μg/ml, read-out: IC50-1 FU) it was 8.64 µg/mL (≈ 66.4 µM); in [4] (5-FU, doses ranged from 5-300 μg/ml, read-out: IC50-2 FU), 6.72 µg/mL (≈ 51.7 µM); in test [5] (HCC38, 5-FU, HCC 38 cells, doses ranged from 5-300 μg/ml, read-out: IC50-1 FU) it was 216 µg/mL (≈ 1660 µM). Besides, the concentration for half-maximal inhibition (IC50) in [6] (HCC202, 5-FU, HCC 202 cells, doses ranged from 5-300 μg/ml, read-out: IC50-1 FU) was 181 µg/mL (≈ 1390 µM); in [6] (HCC202, 5-FU, HCC 202 cells, doses ranged from 5-300 μg/ml, read-out: IC50-2 FU) it was 162 µg/mL (≈ 1250 µM); in [7] (read-out: IC50-1 FU), 10 µg/mL (≈ 76.9 µM); in test [7] (read-out: IC50-2 FU) it was 15.2 µg/mL (≈ 117 µM).

As to `CC(=O)O[C@@]12CO[C@@H]1C[C@H](O)[C@@]1(C)C(=O)[C@H](O)C3=C(C)[C@@H](OC(=O)[C@H](O)[C@@H](NC(=O)OC(C)(C)C)c4ccccc4)C[C@@](O)([C@@H](OC(=O)c4ccccc4)[C@H]21)C3(C)C` [Docetaxel, docetaxel], the half-maximal inhibitory concentration (IC50) in test [1] (Docetaxel, SKBR3 cells, read-out: IC50-1) stood at 6.6 µg/mL (≈ 8.17 µM); in [1] (Docetaxel, SKBR3 cells, read-out: IC50-2) it was 12.5 µg/mL (≈ 15.5 µM); in test [3] (HCC2218, Docetaxel, HCC 2218 cells, 72 hours post treatment, read-out: IC50-1), 25 µg/mL (≈ 30.9 µM); in [3] (HCC2218, Docetaxel, HCC 2218 cells, 72 hours post treatment, read-out: IC50-2) it was 18 µg/mL (≈ 22.3 µM); in test [4] (Docetaxel, 72 hours post treatment, read-out: IC50-1) it was 5.5 µg/mL (≈ 6.81 µM); in [4] (Docetaxel, 72 hours post treatment, read-out: IC50-2), 4.5 µg/mL (≈ 5.57 µM). Also, the concentration for half-maximal inhibition (IC50) came to 58 µg/mL (≈ 71.8 µM) in test [5] (Docetaxel, HCC38 cells, 72 hours post treatment, read-out: IC50-1); 59.9 µg/mL (≈ 74.1 µM) in [5] (Docetaxel, HCC38 cells, 72 hours post treatment, read-out: IC50-2); 25.5 µg/mL (≈ 31.6 µM) in [6] (Docetaxel, HCC202 cells, 72 hours post treatment, read-out: IC50-1); 22 µg/mL (≈ 27.2 µM) in [6] (Docetaxel, HCC202 cells, 72 hours post treatment, read-out: IC50-2); 1 µg/mL (≈ 1.24 µM) in [8] (MCF7, Docetaxel, read-out: IC50-1); 0.8 µg/mL (≈ 0.99 µM) in test [8] (MCF7, Docetaxel, read-out: IC50-2). Besides, the “biological response” value in test [2] was “sensitive”; in [3] (HCC 2218 cells), “response only to higher doses”; in test [4], “sensitive”; in test [5] (HCC 38 cells), “response only to higher doses”; in [6] (HCC 202 cells), “resistant”; in test [7], “sensitive”.
